Data taken from patent US9856252B2, “2-(hetero)aryl-benzimidazole and imidazopyridine derivatives as inhibitors of asparagime emethyl transferase” (Cancer Therapeutics CRC Pty Ltd, priority 2013, dated 2018).
Structures can show the parent of a compound that is named as a salt.

Biological target: Full-length PRMT5 enzyme (NCBI Reference sequence NP_006100.2) co-expressed with His6-MEP50 (Homo sapiens (Human), UniProt O14744)
Assay: PRMT5 Biochemical Assay
Settings: histone H4 derived peptide substrate 200 nM, 1 μM S-Adenosyl methionine, 4 hours at 37° C., Transcreener EPIGEN fluorescence polarisation
Method: Compounds of the invention may be tested for in vitro activity in the following assay: A histone H4 derived peptide is used as substrate (amino acid sequence: […]N H2). Full-length PRMT5 enzyme (NCBI Reference sequence NP_006100.2) was co-expressed with His6-MEP50 in insect cells and purified via Nickel immobilized metal affinity and gel filtration chromatography (“the enzyme”).
The 6 μL assay reactions are run in Greiner brand black 384-well low volume plates. All reactions contained assay buffer (phosphate buffered saline, 0.01% (v/v) Tween-20, 0.01% (w/v) albumin from chicken egg white, 1 mM dithiothreitol, 200 nM peptide substrate, 1 μM S-Adenosyl methionine, and 15 ng/reaction enzyme, with the enzyme being omitted from negative control reactions. Compounds were added in a volume of 100 nL from dilution series prepared in DMSO, positive and negative control reactions receiving the same volume DMSO without compound. The plates were sealed with adhesive seals and incubated for 4 hours at 37° C. Reaction progress was measured using the Transcreener™ EPIGEN methyltransferase assay (BellBrook Labs, Madison, Wis.) as recommended by the manufacturer. To each reaction 2 μL detection mix were added, containing coupling enzymes, fluorescence polarisation tracer, and AMP antibody. Plates were incubated for 90 minutes before being read on a PerkinElmer EnVision™ plate reader in fluorescence polarisation mode.

Full-length PRMT5 enzyme (NCBI Reference sequence NP_006100.2) co-expressed with His6-MEP50, sequence (O14744 whole entry): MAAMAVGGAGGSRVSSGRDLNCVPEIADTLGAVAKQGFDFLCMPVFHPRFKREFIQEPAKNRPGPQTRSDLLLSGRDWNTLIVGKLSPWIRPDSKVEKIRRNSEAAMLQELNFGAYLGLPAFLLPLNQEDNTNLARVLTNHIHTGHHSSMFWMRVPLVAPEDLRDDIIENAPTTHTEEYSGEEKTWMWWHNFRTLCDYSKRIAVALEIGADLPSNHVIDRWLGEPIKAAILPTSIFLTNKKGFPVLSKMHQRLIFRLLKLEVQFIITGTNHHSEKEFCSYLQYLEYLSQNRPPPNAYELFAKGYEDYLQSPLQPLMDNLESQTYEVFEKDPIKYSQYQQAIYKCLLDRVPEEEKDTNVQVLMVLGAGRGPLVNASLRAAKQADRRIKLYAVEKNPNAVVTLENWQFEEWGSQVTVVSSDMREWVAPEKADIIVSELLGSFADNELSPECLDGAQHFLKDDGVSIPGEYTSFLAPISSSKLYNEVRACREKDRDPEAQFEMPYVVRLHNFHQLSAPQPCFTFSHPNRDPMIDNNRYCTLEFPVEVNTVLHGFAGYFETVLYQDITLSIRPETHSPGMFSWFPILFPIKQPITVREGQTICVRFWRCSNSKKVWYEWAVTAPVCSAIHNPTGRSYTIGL
Full-length PRMT5 enzyme (NCBI Reference sequence NP_006100.2) co-expressed with His6-MEP50, sequence (Q9BQA1 whole entry partner): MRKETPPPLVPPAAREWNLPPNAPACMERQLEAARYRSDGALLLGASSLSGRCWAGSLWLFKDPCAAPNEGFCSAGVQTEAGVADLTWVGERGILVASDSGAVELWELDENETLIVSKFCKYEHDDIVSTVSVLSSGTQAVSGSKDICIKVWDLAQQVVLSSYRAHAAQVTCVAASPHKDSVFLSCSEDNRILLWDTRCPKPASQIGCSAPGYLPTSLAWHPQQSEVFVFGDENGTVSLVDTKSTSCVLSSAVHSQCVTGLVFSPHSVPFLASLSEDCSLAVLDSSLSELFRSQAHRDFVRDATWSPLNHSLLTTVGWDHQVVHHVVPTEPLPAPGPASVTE

IC50	SMILES
3970 nM	O=C(Nc1ccc(-c2nc3cccnc3[nH]2)cc1)c1ccccc1 [Example 3, N-(4-(3H-imidazo[4,5-b]pyridin-2-yl)phenyl)benzamide]
375 nM	CC(=O)N1CCC(c2cnc3[nH]c(-c4ccc(COc5ccccc5)cc4)nc3c2)CC1 [Example 10, 1-(4-(2-(4-(phenoxymethyl)phenyl)-3H-imidazo[4,5-b]pyridin-6-yl)piperidin-1-yl)ethanone]
482 nM	CN1CCC(c2cnc3[nH]c(-c4ccc(COc5ccccc5)cc4)nc3c2)CC1 [Example 11, 6-(1-methylpiperidin-4-yl)-2-(4-(phenoxymethyl)phenyl)-3H-imidazo[4,5-b]pyridine]
847 nM	c1ccc(COc2ccc(-c3nc4ccc(Nc5cn[nH]c5)nc4[nH]3)cc2)cc1 [Example 20, 2-(4-(benzyloxy)phenyl)-N-(1H-pyrazol-4-yl)-3H-imidazo[4,5-b]pyridin-5-amine]
774 nM	O=C1CNCCN1c1ccc2nc(-c3ccc(OCc4ccccc4)cc3)[nH]c2n1 [Example 21, 1-(2-(4-(benzyloxy)phenyl)-3H-imidazo[4,5-b]pyridin-5-yl)piperazin-2-one]
487 nM	CC(=O)NCCNc1ccc2nc(-c3ccc(OCc4ccccc4)cc3)[nH]c2n1 [Example 22, N-(2-((2-(4-(benzyloxy)phenyl)-3H-imidazo[4,5-b]pyridin-5-yl)amino)ethyl)acetamide]
497 nM	c1ccc(COc2ccc(-c3nc4ccc(N5CCSCC5)nc4[nH]3)cc2)cc1 [Example 23, 4-(2-(4-(benzyloxy)phenyl)-3H-imidazo[4,5-b]pyridin-5-yl)thiomorpholine]
570 nM	[O-][S+]1CCN(c2ccc3nc(-c4ccc(OCc5ccccc5)cc4)[nH]c3n2)CC1 [Example 24, 4-(2-(4-(benzyloxy)phenyl)-3H-imidazo[4,5-b]pyridin-5-yl)thiomorpholine 1-oxide]
619 nM	O=S1(=O)CCN(c2ccc3nc(-c4ccc(OCc5ccccc5)cc4)[nH]c3n2)CC1 [Example 25, 4-(2-(4-(benzyloxy)phenyl)-3H-imidazo[4,5-b]pyridin-5-yl)thiomorpholine 1,1-dioxide]
132 nM	CN1CCN(c2ccc3nc(-c4ccc(OCc5ccccc5)cc4)[nH]c3n2)CC1 [Example 26, 2-(4-(benzyloxy)phenyl)-5-(4-methylpiperazin-1-yl)-3H-imidazo[4,5-b]pyridine]
148 nM	CCS(=O)(=O)N1CCN(c2ccc3nc(-c4ccc(OCc5ccccc5)cc4)[nH]c3n2)CC1 [Example 27, 2-(4-(benzyloxy)phenyl)-5-(4-(ethylsulfonyl)piperazin-1-yl)-3H-imidazo[4,5-b]pyridine]
1680 nM	CC(C)(C)OC(=O)NCC1CCCN(c2ccc3nc(-c4ccc(OCc5ccccc5)cc4)[nH]c3n2)C1 (stereo not shown) [Example 28, tert-butyl ((1-(2-(4-(benzyloxy)phenyl)-3H-imidazo[4,5-b]pyridin-5-yl)piperidin-3-yl)methyl)carbamate]
2660 nM	CN(c1ccc2nc(-c3ccc(OCc4ccccc4)cc3)[nH]c2n1)C1CCCN(C(=O)OC(C)(C)C)C1 (stereo not shown) [Example 30, tert-butyl 3-((2-(4-(benzyloxy)phenyl)-3H-imidazo[4,5-b]pyridin-5-yl)(methyl)amino)piperidine-1-carboxylate]
1240 nM	CC(C)(C)OC(=O)N1CCC(CNc2ccc3nc(-c4ccc(OCc5ccccc5)cc4)[nH]c3n2)CC1 [Example 31, tert-butyl 4-(((2-(4-(benzyloxy)phenyl)-3H-imidazo[4,5-b]pyridin-5-yl)amino)methyl)piperidine-1-carboxylate]
827 nM	CC(C)(C)OC(=O)N1CCC(Nc2ccc3nc(-c4ccc(OCc5ccccc5)cc4)[nH]c3n2)CC1 [Example 32, tert-butyl 4-((2-(4-(benzyloxy)phenyl)-3H-imidazo[4,5-b]pyridin-5-yl)amino)piperidine-1-carboxylate]
204 nM	c1ccc(OCc2ccc(-c3nc4ccc(C5CCCNC5)nc4[nH]3)cc2)cc1 (stereo not shown) [Example 35, 2-(4-(phenoxymethyl)phenyl)-5-(piperidin-3-yl)-3H-imidazo[4,5-b]pyridine]
197 nM	c1ccc(COc2ccc(-c3nc4ccc(N5CCNCC5)nc4[nH]3)cc2)cc1 [Example 47, 2-(4-(benzyloxy)phenyl)-5-(piperazin-1-yl)-3H-imidazo[4,5-b]pyridine]
450 nM	CN(C)c1ccc2nc(-c3ccc(OCc4ccccc4)cc3)[nH]c2n1 [Example 48, 2-(4-(benzyloxy)phenyl)-N,N-dimethyl-3H-imidazo[4,5-b]pyridin-5-amine]
317 nM	NCC1CCCN(c2ccc3nc(-c4ccc(OCc5ccccc5)cc4)[nH]c3n2)C1 (stereo not shown) [Example 50]
547 nM	c1ccc(COc2ccc(-c3nc4ccc(NCC5CCCCN5)nc4[nH]3)cc2)cc1 (stereo not shown) [Example 51]

IC50	SMILES
935 nM	c1ccc(COc2ccc(-c3nc4ccc(NCC5CCNCC5)nc4[nH]3)cc2)cc1 [Example 52]
581 nM	c1ccc(COc2ccc(-c3nc4ccc(NC5CCNCC5)nc4[nH]3)cc2)cc1 [Example 53]
583 nM	NC1CCN(c2ccc3nc(-c4ccc(OCc5ccccc5)cc4)[nH]c3n2)CC1 [Example 54]
426 nM	NCC1CCN(c2ccc3nc(-c4ccc(OCc5ccccc5)cc4)[nH]c3n2)CC1 [Example 55]
1860 nM	FC(F)(F)c1ccc(COc2ccc(-c3nc4ccc(N5CCNCC5)nc4[nH]3)cc2)cc1 [Example 56]
981 nM	Fc1ccccc1COc1ccc(-c2nc3ccc(N4CCNCC4)nc3[nH]2)cc1 [Example 57]
333 nM	Fc1cccc(COc2ccc(-c3nc4ccc(N5CCNCC5)nc4[nH]3)cc2)c1 [Example 58]
535 nM	Fc1ccc(COc2ccc(-c3nc4ccc(N5CCNCC5)nc4[nH]3)cc2)cc1 [Example 59]
1660 nM	FC(F)(F)c1ccccc1COc1ccc(-c2nc3ccc(N4CCNCC4)nc3[nH]2)cc1 [Example 60]
215 nM	Cn1cc(-c2cc(-c3nc4cc(C5CCNCC5)cnc4[nH]3)ccc2OCc2ccccc2)cn1 [Example 63, 2-(4-(benzyloxy)-3-(1-methyl-1H-pyrazol-4-yl)phenyl)-6-(piperidin-4-yl)-3H-imidazo[4,5-b]pyridine]
336 nM	c1ccc(COc2ccc(-c3nc4cc(C5CCNCC5)cnc4[nH]3)cc2-c2cccnc2)cc1 [Example 64, 2-(4-(benzyloxy)-3-(pyridin-3-yl)phenyl)-6-(piperidin-4-yl)-3H-imidazo[4,5-b]pyridine]
276 nM	Fc1cc(-c2nc3cc(C4CCNCC4)cnc3[nH]2)ccc1OCc1ccccc1 [Example 65, 2-(4-(benzyloxy)-3-fluorophenyl)-6-(piperidin-4-yl)-3H-imidazo[4,5-b]pyridine]
3720 nM	O=C(O)c1cc(-c2nc3cc(C4CCNCC4)cnc3[nH]2)ccc1OCc1ccccc1 [Example 67, 2-(benzyloxy)-5-(6-(piperidin-4-yl)-3H-imidazo[4,5-b]pyridin-2-yl)benzoic acid dihydrochloride salt]
447 nM	CCS(=O)(=O)N1CCN(c2ccc3nc(-c4ccc(OCc5ccccc5)c(-c5cnn(C)c5)c4)[nH]c3n2)CC1 [Example 69, 2-(4-(benzyloxy)-3-(1-methyl-1H-pyrazol-4-yl)phenyl)-5-(4-(ethylsulfonyl)piperazin-1-yl)-3H-imidazo[4,5-b]pyridine]
1110 nM	CCS(=O)(=O)N1CCN(c2ccc3nc(-c4ccc(OCc5ccccc5)c(-c5ccn[nH]5)c4)[nH]c3n2)CC1 [Example 70]
542 nM	CCS(=O)(=O)N1CCN(c2ccc3nc(-c4ccc(OCc5ccccc5)c(-c5cccnc5)c4)[nH]c3n2)CC1 [Example 71]
1360 nM	CCS(=O)(=O)N1CCN(c2ccc3nc(-c4ccc(OCc5ccccc5)c(C)c4)[nH]c3n2)CC1 [Example 74, 2-(4-(benzyloxy)-3-methylphenyl)-5-(4-(ethylsulfonyl)piperazin-1-yl)-3H-imidazo[4,5-b]pyridine]
306 nM	CCS(=O)(=O)N1CCN(c2ccc3nc(-c4ccc(OCc5ccccc5)c(OC)c4)[nH]c3n2)CC1 [Example 75, 2-(4-(benzyloxy)-3-methoxyphenyl)-5-(4-(ethylsulfonyl)piperazin-1-yl)-3H-imidazo[4,5-b]pyridine]
901 nM	O=C(O)Cc1ccnc2[nH]c(-c3ccc(OCc4ccccc4)cc3)nc12 [Example 77, 2-(2-(4-(benzyloxy)phenyl)-3H-imidazo[4,5-b]pyridin-7-yl)acetic acid]

SMILES	IC50
c1ccc(OCc2ccc(-c3nc4cccnc4[nH]3)cc2)cc1 [Example 1, 2-(4-(phenoxymethyl)phenyl)-3H-imidazo[4,5-b]pyridine]	1490 nM
CC(=O)N1CCC(c2cnc3[nH]c(-c4ccc(OCc5ccccc5)cc4)nc3c2)CC1 [Example 13, 1-(4-(2-(4-(Benzyloxy)phenyl)-3H-imidazo[4,5-b]pyridin-6-yl)piperidin-1-yl)ethanone]	339 nM
Cn1ccc(-c2ccc3nc(-c4ccc(COc5ccccc5)cc4)[nH]c3n2)n1 [Example 38, 5-(1-methyl-1H-pyrazol-3-yl)-2-(4-(phenoxymethyl)phenyl)-3H-imidazo[4,5-b]pyridine]	2390 nM
COC(=O)c1cc(-c2nc3cc(C4CCNCC4)cnc3[nH]2)ccc1OCc1ccccc1 [Example 66, methyl 2-(benzyloxy)-5-(6-(piperidin-4-yl)-3H-imidazo[4,5-b]pyridin-2-yl)benzoate dihydrogen chloride salt]	608 nM
